In patent US10512600B2, “RNA complexes that inhibit melanin production” (OliX Pharmaceuticals, Inc., priority 2015, dated 2019):
Like-named read-outs stand apart in the source and are kept apart here. Oligonucleotides are written 5' to 3', each unit as a sugar letter and its base; * is a phosphorothioate linkage, no mark a phosphodiester; rarer units and linkages stand in square brackets, end groups in braces. Plain capitals give the bases only. {Chol} = cholesterol conjugate; m = 2'-O-methyl; r = 2'-OH (RNA)

Assays:
[1] = test system: tyrosinase protein; assay: Western blot of tyrosinase protein expression in treated MNT-1 cells; assay type: cell-based, human
Procedure: (§1) MNT-1 cells were cultured in Minimum Essential Media (Welgene) containing 20% fetal bovine serum (Gibco), 100 μg/ml penicillin/streptomycin, 10% 200 mM HEPES (Welgene) and 10% Dulbecco's modified Eagle's medium (Welgene). One day prior to treatment, 6.5×10^4MNT-1 cells were seeded in 12-well plates.
(§2) After 72 hours of cp-asiTYR(4)-1 incubation, the level of tyrosinase protein expression was determined via western blot. Briefly, the treated MNT-1 cells were lysed with RIPA buffer (GE). Fifteen μg of the total protein extract were loaded onto a 12% SDS-PAGE gel and electrophoresed at 120 V. After electrophoresis, the proteins were transferred to PVDF membrane (Bio-rad) already activated by methanol (Merck) for 1 hour at 300 mA. The membrane was blocked for 1 hour at the room temperature with 5% skim milk (Seoul Milk) and then incubated overnight at 4° C. in 5% skim milk containing anti-tyrosinase antibody (Santa Cruz) and anti-β-actin antibody (Santa Cruz). The membrane was then washed with 1×TBST for 10 minutes three times and was incubated for 1 hour at the room temperature in 5% skim milk with HRP-conjugated secondary antibody. The membrane was washed with 1×TBST for 10 minutes and treated with 1×ECL for 1 minute. The tyrosinase and β-actin bands were then imaged using a Chemidoc instrument (Bio-rad).
as §2, with “The level” for “After 72 hours of cp-asiTYR(4)-1 incubation, the level”, “expression by MNT-1 cells after treatment with 1 μM and 3 μM cp-asiRNAs” for “expression”, “the transfected” for “the treated”
The level of tyrosinase protein expression by MNT-1 cells after treatment with 1 μM, 0.6 μM, 0.3 μM and 0.1 μM cp-asiRNAs was determined via western blot. Briefly, the transfected MNT-1 cells were lysed with RIPA buffer (GE). […]

[2] = test system: MNT-1 cells; assay: Melanin content assay in treated MNT-1 cells; assay type: cell-based, human; conditions: 1 μM, 72 hours
Procedure: as §1
(§3) MNT-1 cells treated with cp-asiTYR(4)-1 as described above were tested for melanin content. After 72 hours of incubation in the presence of cp-asiTYR, the MNT-1 cells were collected, lysed with RIPA buffer (GE) and centrifuged at 13000 rpm. The resulting melanin pellet was dissolved in 100 μL of 1N NaOH (containing 10% DMSO) at 85° C. for 15 minutes and light absorption and melanin production were measured.
as §3, with “cp-asiTYR(4) 21AS-1 or cp-asiTYR(4) 19AS-5” for “cp-asiTYR(4)-1”
MNT-1 cells were cultured in Minimum Essential Media (Welgene) containing 20% fetal bovine serum (Gibco), 100 μg/ml penicillin/streptomycin, 10% 200 mM HEPES (Welgene) and 10% Dulbecco's modified Eagle's medium (Welgene). One day prior to treatment, 6.5×10^4MNT-1 cells were seeded in 12-well plates. Four hours prior to treatment, the cell media was replaced with 900 μL of FBS-containing media. The PF6-complexed asiRNA or lasiRNA was added to the cells and the cells were incubated for 24 hours, at which point the media was replaced. Tyrosinase mRNA levels were measured using real-time RT-PCR 24 hours after media replacement.
To test the treated MNT-1 cells for tyrosinase protein expression and melanin production, western blot and melanin content assays were performed as described above 48 hours after media replacement.

[3] = test system: MNT-1 cells; assay: Color change (lightening) of MNT-1 cell pellets; assay type: cell-based, human; conditions: 1 μM or 3 μM, 72 hours, FIG. 5
Procedure: as §1
After 72 hours, cells were pelleted and the color change of the cells was observed.

[4] = test system: MNT-1 cells; assay: Cytotoxicity (LDH, CytoTox96) and cell viability (CCK-8) in MNT-1 cells; assay type: cell-based, human; conditions: 24 hours, LDH and CCK-8 assays, FIG. 6
Procedure: (§5) One day before treatment with cp-asiRNA(4)-1, 5.0×10^3MNT-1 cells or 1.0×10^4 HaCaT cells were seeded into 96 well plates. Immediately before treatment, the cells were washed with 1×DPBS buffer (Gibco), and then cultured in the presence of 1 μM or 3 μM of cp-asiRNATYR(4)-1 in OPTI-MEM buffer for 24 hours, at which point the cytotoxicity level was measured using a CytoTox96 Non-Radio Cytotoxicity assay (Promega) according to manufacturer's instructions. The media was then replaced with the serum-containing media and cell viability was measured using a cell counting kit-8 (Enzo) according to manufacturer's instructions.

[5] = test system: MEL-300-B reconstructed skin model; assay: Light microscopy of melanocytes in reconstructed skin model MEL-300-B; assay type: cell-based; conditions: 5 μM every day for 13 days, day 14, light microscopy
Procedure: (§4) Tyrosinase expression and melanin level was analyzed in an cp-asiTYR#4-1 treated 3-D skin model. MEL-300-B (MatTek), a reconstructed skin model, was used in this study. MEL-300-B was stabilized in EPI-100-NMM-113 media 24 hours before treatment with cp-asiTYR#4-1. […] MEL-300-B samples were treated with cp-asiTYR#4-1 every day for 13 days (final concentration=5 μM) by adding cp-asiTYR#4-1 directly to the media. As a control, other MEL-300-B samples were treated with kojic acid (Sigma, 2% final) as depicted in FIG. 14(a). The samples were harvested at day 14 and the melanocytes in the sample were analyzed using light microscopy. […] Melanin level in each sample was analyzed using Fontana-Massons staining.

[6] = test system: MEL-300-B reconstructed skin model; assay: Fontana-Massons staining for melanin in reconstructed skin model MEL-300-B; assay type: cell-based; conditions: 5 μM every day for 13 days, day 14, Fontana-Massons staining
Procedure: as §4

[7] = test system: tyrosinase mRNA; assay: Tyrosinase mRNA level in reconstructed skin model MEL-300-B by real-time PCR; assay type: cell-based; conditions: 5 μM every day for 13 days, day 14, FIG. 14(d)
Procedure: as §4
In order to analyze mRNA level at day 14, samples were harvested in Isol-RNA lysis reagent (5PRIME) and homogenized by using a homogenizer (IKA). Total RNA from the each sample was extracted. For each sample, 500 ng of the extracted RNA was used for cDNA synthesis using the high-capacity cDNA reverse transcription kit (Applied Biosystems) according to the manufacturer's instructions. Quantitative real-time PCR was then performed using the StepOne real-time PCR system (Applied Biosystems). Amplification of the tyrosinase cDNA was detected using a power SYBR green PCR master Mix (Applied Biosystems). GAPDH was amplified as an internal control.

[8] = test system: tyrosinase protein; assay: Western blot of tyrosinase protein in reconstructed skin model MEL-300-B; assay type: cell-based; conditions: 5 μM every day for 13 days, day 14, FIG. 14e
Procedure: as §4
Protein level analysis was conducted as using western blot. Harvested samples in RIPA buffer (GE) were homogenized by using homogenizer (IKA) and protein from the each sample was obtained. Fifteen micrograms of the total protein extract were loaded onto a 12% SDS-PAGE gel and electrophoresed at 120 V. After electrophoresis, the proteins were transferred to PVDF membrane (Bio-rad) that had been previously activated with methanol (Merck) for 1 hour at 300 mA. The membrane was blocked for 1 hour at the room temperature with 5% skim milk (Seoul Milk) and then incubated overnight at 4° C. in 5% skim milk containing anti-tyrosinase antibody (Santa Cruz) and anti-β-actin antibody (Santa Cruz). […]

[9] = test system: MEL-300-B reconstructed skin model; assay: Melanin content assay in reconstructed skin model MEL-300-B; assay type: cell-based; conditions: 5 μM every day for 13 days, day 14, FIG. 14(f)
Procedure: as §4
To test melanin content, samples were harvested at day 14, lysed with RIPA buffer (GE) and centrifuged at 13000 rpm. The resulting pellet was dissolved in 100 μL of 1N NaOH (containing 10% DMSO) at 85° C. for 15 minutes and light absorption and melanin production were measured.

[10] = test system: HaCaT cells
Procedure: as §5

[11] = test system: HaCaT cells; assay: Cytotoxicity (LDH, CytoTox96) and cell viability (CCK-8) in HaCaT cells; conditions: 24 hours, LDH and CCK-8 assays, FIG. 6
Procedure: as §5

Q: With “cp-asiTYR(4) 19AS-5: S: GCUGACAGGAGAUG*A*A*cholesterol (SEQ ID NO: 131); AS: UUCAUCUCCUGUCAG*C*mU*mU*mC (SEQ ID NO: 160) (sense rGrCrUrGrArCrArGrGrArGrArUrG*rA*rA*{Chol}; antisense rUrUrCrArUrCrUrCrCrUrGrUrCrArG*rC*mU*mU*mC; siRNA)” as the molecule, how does the “relative inhibitory activity on tyrosinase protein” value ([1]; 1 μM and 3 μM, FIG. 8) read?
A: slightly higher inhibitory activity than cp-asiTYR(4) 21AS-1

Q: What about the “inhibition in melanin production” value ([2]; FIG. 9) of the same molecule?
A: ~50%

Q: What about the “inhibition in melanin production compared with arbutin” value ([2]; FIG. 9) of the same molecule?
A: higher than the inhibition shown in MNT-1 cells treated with 2 mM arbutin

Q: Which tyrosinase protein inhibition ([1]; 1 μM or 3 μM, 72 hours, without transfection vehicle, FIG. 3) does the source give for “cp-asiTYR(4)-1: S: GCUGACAGGAGAUG*A*A*cholesterol (SEQ ID NO: 131); AS: UUCAUCUCCUGUCAGCU*U*C*U*G (SEQ ID NO: 132) (sense GCUGACAGGAGAUGAA; antisense UUCAUCUCCUGUCAGCUUCUG; siRNA; sense: linkages o13 s2 (s phosphorothioate, o phosphodiester), 3' *{Chol}, sugars by position and methylation of C not given here; antisense: linkages o16 s4 (s phosphorothioate, o phosphodiester), sugars by position and methylation of C not given here)” here?
A: ≥ 70%

Q: What about the “relative inhibitory activity on tyrosinase protein” value ([1]; 1 μM to 0.1 μM, FIG. 10) of the same molecule?
A: slightly higher inhibitory activity than cp-asiTYR(4) 19AS-7

Q: And the “tyrosinase inhibition ability compared with other tyrosinase inhibitors” value ([1]; 72 hours, western blot, FIG. 3)?
A: higher efficiency in the tyrosinase inhibition ability than other tyrosinase inhibitors such as Hydroquinone and Arbutin

Q: And the “inhibition in melanin production compared with hydroquinone and arbutin” value ([2]; FIG. 4)?
A: higher than when treated with compounds commonly used for melanin production, including hydroquinone (20 μM) and arbutin (2 mM)

Q: And the “inhibition in melanin production” value ([2]; FIG. 9)?
A: ~50%

Q: And the “inhibition in melanin production compared with arbutin” value ([2]; FIG. 9)?
A: higher than the inhibition shown in MNT-1 cells treated with 2 mM arbutin

Q: What about the “inhibition in melanin production” value ([2]; without transfection vehicle, FIG. 4) of the same molecule?
A: greater than 60%

Q: What about the “color of treated cells” value [3] of the same molecule?
A: lighter than untreated MNT-1 control cells (NT), hydroquinone treated cells and arbutin treated cells

Q: What about the “cytotoxicity / cell viability” value [4] of the same molecule?
A: no cytotoxicity or loss of cell viability was observed

Q: What about the level of melanocytes [5] of the same molecule?
A: reduced the level of melanocytes

Q: What about the level of melanin [6] of the same molecule?
A: reduced the level of melanin

Q: What about the “level of tyrosinase mRNA” value [7] of the same molecule?
A: reduced the level of tyrosinase mRNA

Q: What about the tyrosinase protein level [8] of the same molecule?
A: potent knockdown of tyrosinase protein

Q: And the “melanin level (melanin content)” value [9]?
A: reduced melanin level

Q: And the “cytotoxicity / cell viability” value [10]?
A: no cytotoxicity or loss of cell viability was observed

Q: How did the “cytotoxicity / cell viability” value [11] turn out when `Oc1ccc(O)cc1` [hydroquinone] was run?
A: cytotoxicity was observed

Q: With `OC[C@H]1O[C@@H](Oc2ccc(O)cc2)[C@H](O)[C@@H](O)[C@@H]1O` [arbutin] as the molecule, how does the “cytotoxicity / cell viability” value [11] read?
A: cytotoxicity was observed
